In US20220132862A1, “PSEUDOMONAS SP. STRAIN, COMPOSITION COMPRISING THE SAME, AND USES THEREOF” (FUTURECO BIOSCIENCE, S.A., priority 2019, published 2022):

The molecules below were run on B2021 (assay: Antibiotic resistance, MIC by broth microdilution (BMD)). Conditions: lowest antibiotic concentration that inhibited 80% of growth; LB, 18 h, 28° C.
Assay type: cell-based, Pseudomonas sp.
Experimental: Minimum inhibitory concentrations (MICs) for tested antibiotics were determined by the broth microdilution (BMD) method. Four antibiotics were used: Streptomycin Sulfate, Nalidixic Acid, Oxytetracycline and Erythromycine. Briefly. MICs were determined in sterile 96-well plates by two-fold serial dilutions in 100 μL of LB. […] The MIC was defined as the lowest antibiotic concentration that inhibited 80% of growth (based on OD measurements) in comparison to the control. Moreover, cell viability was confirmed by addition of 30 μL of 0.01% resazurin. Any color changes from blue-purple to pink were recorded as positive and the MIC was defined as the lowest antibiotic concentration lacking this color change.

Point of comparison: `CC[C@H]1OC(=O)[C@H](C)[C@@H](O[C@H]2C[C@@](C)(OC)[C@@H](O)[C@H](C)O2)[C@H](C)[C@@H](O[C@@H]2O[C@H](C)C[C@H](N(C)C)[C@H]2O)[C@](C)(O)C[C@@H](C)C(=O)[C@H](C)[C@@H](O)[C@]1(C)O` [Erythromycine], “Antibiotic resistance (MIC)” value 240 µg/mL. Against it:
- CCn1cc(C(=O)O)c(=O)c2ccc(C)nc21 [Nalidixic Acid] — the same, 240 µg/mL
- CN(C)[C@@H]1C(O)=C(C(N)=O)C(=O)[C@@]2(O)C(O)=C3C(=O)c4c(O)cccc4[C@@](C)(O)[C@H]3[C@H](O)[C@@H]12 [Oxytetracycline] — 77-fold lower, 3.13 µg/mL
- Streptomycine Sulfate — 6.7-fold higher, 1600 µg/mL
